Data as given in patent US20210139484A1, “DIHYDROISOQUINOLINE-2(1H)-CARBOXAMIDE AND RELATED COMPOUNDS AND THEIR USE IN TREATING MEDICAL CONDITIONS” (GOSSAMER BIO SERVICES, INC., priority 2018, published 2021).
pIC50: −log10 of the molar value.

Target: T1, human HPK1 protein (Homo sapiens, UniProt Q92918)
T1 construct: recombinant human HPK1 protein (a.a. 1-346) was expressed in Sf9 insect cells; GST (N); purchased Signalchem M23-11G; host or cells: Sf9 insect cells (baculovirus)
T1 sequence (Q92918 1-346): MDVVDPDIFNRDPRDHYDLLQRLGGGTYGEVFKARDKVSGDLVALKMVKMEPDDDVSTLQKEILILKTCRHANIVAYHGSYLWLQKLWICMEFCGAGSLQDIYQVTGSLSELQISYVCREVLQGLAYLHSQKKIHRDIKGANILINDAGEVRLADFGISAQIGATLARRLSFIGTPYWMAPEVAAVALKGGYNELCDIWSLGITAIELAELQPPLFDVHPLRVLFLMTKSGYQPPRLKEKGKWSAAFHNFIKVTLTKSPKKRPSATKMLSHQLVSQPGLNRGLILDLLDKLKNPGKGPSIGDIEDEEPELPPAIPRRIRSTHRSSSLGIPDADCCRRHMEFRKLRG
Experiment: Human HPK1 protein TR-FRET assay
Format: biochemical
Conditions: 1 mM ATP, Table 20
Summary of the method: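 Read-out was TR-FRET using Eu-labeled anti-phospho-CREB (Ser133) antibody, with the 665/615 nm signal ratio normalised to DMSO-only wells and fitted by a 4-parameter logistic model for IC50. Reactions held 10 nM Sf9-expressed GST-HPK1 (a.a. 1-346), 100 nM CREBtide and 1 mM ATP, run 60 minutes at room temperature, pH 7.5.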

| SMILES | pIC50 |
| --- | --- |
| CC[C@H]1CN(C(=O)Nc2ccc(CN3CCN(CC(F)F)CC3)c(C(F)(F)F)c2)Cc2cc(Oc3ccnc4[nH]c(C(=O)N(C)C)cc34)cnc21 [XIV-139] | 5.30 to 6.30 |
| CC[C@H]1CN(C(=O)Nc2ccc(CN3CCN(CC(F)(F)F)CC3)c(C(F)(F)F)c2)Cc2cc(Oc3ccnc4[nH]c(C(=O)N(C)C)cc34)cnc21 [XIV-140] | < 5.00 |
| CC[C@H]1CN(C(=O)Nc2ccc(CN3CCN(C)CC3)c(C(F)(F)F)c2)Cc2cc(Oc3ncnn4cc(C(=O)N(C)C)cc34)cnc21 [XIV-144] | > 6.30 |
| CC[C@H]1CN(C(=O)Nc2ccc(CN3CCNCC3)c(C(F)(F)F)c2)Cc2cc(Oc3c(F)cnc4[nH]c(C(=O)N(C)C)cc34)cnc21 [XIV-145] | > 6.30 |
| CC[C@H]1CN(C(=O)Nc2ccc(CN3CCN(C)CC3)c(C(F)(F)F)c2)Cc2cc(Oc3ccnc4[nH]c(CS(C)(=O)=O)cc34)cnc21 [XIV-150] | > 6.30 |
| CC[C@H]1CN(C(=O)Nc2ccc(CN3CCN(C)CC3)c(C(F)(F)F)c2)Cc2cc(Oc3ccnc4[nH]c(C5=CCOC5)cc34)cnc21 [XIV-151] | > 6.30 |
| C=C(C)c1cc2c(Oc3cnc4c(c3)CN(C(=O)Nc3ccc(CN5CCN(C)CC5)c(C(F)(F)F)c3)C[C@@H]4CC)ccnc2[nH]1 [XIV-152] | > 6.30 |
| CC[C@H]1CN(C(=O)Nc2ccc(CN3CCN(C)CC3)c(C(F)(F)F)c2)Cc2cc(Oc3ccnc4[nH]c(C(C)C)cc34)cnc21 [XIV-153] | > 6.30 |
| CCC1CN(C(=O)Nc2ccc(CN3CCN(CC)CC3)c(C(F)(F)F)c2)Cc2cc(Oc3ccnc4[nH]c(C5=CCN(C(=O)C6CC6)CC5)cc34)cnc21 (centres unmarked) [XIV-155] | > 6.30 |
| CC[C@@H]1CN(C(=O)Nc2ccc(CN3CCN(C)CC3)c(C(F)F)c2)Cc2cc(Oc3ncnc4[nH]c(C5CC5)cc34)ccc21 [XV-1] | > 6.30 |
| CC[C@H]1CN(C(=O)Nc2ccc(CN3CCN(CCO)CC3)c(C(F)F)c2)Cc2cc(Oc3ncnc4[nH]c(C5CC5)cc34)ccc21 [XV-2] | > 6.30 |
| CC[C@@H]1CN(C(=O)Nc2ccc(CN3CCNCC3)c(C(F)(F)F)c2)Cc2cc(Oc3ccnc4[nH]c(CO)cc34)ccc21 [XV-4] | > 6.30 |
| CC[C@H]1CN(C(=O)Nc2ccc(CN3CCNCC3)c(C(F)(F)F)c2)Cc2cc(Oc3ccnc4[nH]c(CO)cc34)ccc21 [XV-5] | > 6.30 |
| CC[C@@H]1CN(C(=O)Nc2ccc(CN3CCN(C)CC3)c(C(F)F)c2)Cc2cc(Oc3ccnc4[nH]c(CO)cc34)ccc21 [XV-8] | > 6.30 |
| CC[C@@H]1CN(C(=O)Nc2ccc(CN3CCNCC3)c(C(F)(F)F)c2)Cc2cc(Oc3ccnc4[nH]c(C5(O)COC5)cc34)ccc21 [XV-10] | > 6.30 |
| CC[C@@H]1CN(C(=O)Nc2ccc(CN3CCN(C)CC3)c(C(F)(F)F)c2)Cc2cc(Oc3ccnc4[nH]c(C5(O)COC5)cc34)ccc21 [XV-12] | > 6.30 |
| CC[C@@H]1CN(C(=O)Nc2ccc(CN3CCN(C)CC3)c(C(F)F)c2)Cc2cc(Oc3ccnc4[nH]c(C#N)cc34)ccc21 [XV-18] | > 6.30 |
| CC[C@H]1CN(C(=O)Nc2ccc(CN3CCN(CCO)CC3)c(C(F)F)c2)Cc2cc(Oc3ccnc4[nH]c(C#N)cc34)ccc21 [XV-21] | > 6.30 |
| CC[C@@H]1CN(C(=O)Nc2ccc(CN3CCN(CCO)CC3)c(C(F)F)c2)Cc2cc(Oc3ccnc4[nH]c(C5CC5)cc34)ccc21 [XV-24] | > 6.30 |
| CC[C@H]1CN(C(=O)Nc2ccc(CN3CCN(C)CC3)c(C(F)(F)F)c2)Cc2cc(Oc3ccnc4[nH]c(C#N)cc34)ccc21 [XV-28] | > 6.30 |
| CC[C@H]1CN(C(=O)Nc2ccc(CN3CCN(C)CC3)c(C(F)(F)F)c2)Cc2cc(Oc3ccnc4[nH]c(C(N)=O)cc34)ccc21 [XV-30] | > 6.30 |
| C[C@H]1CN(C(=O)Nc2ccc(CN3CCN(C)CC3)c(C(F)(F)F)c2)Cc2cc(Oc3ccnc4[nH]c(C5(O)COC5)cc34)ccc21 [XV-32] | > 6.30 |
| C[C@H]1CN(C(=O)Nc2ccc(CN3CCN(C)CC3)c(C(F)F)c2)Cc2cc(Oc3ccnc4[nH]c(C5(O)COC5)cc34)ccc21 [XV-33] | > 6.30 |
| C[C@H]1CN(C(=O)Nc2ccc(CN3CCN(C)CC3)c(C(F)(F)F)c2)Cc2cc(Oc3ccnc4[nH]c(C#N)cc34)ccc21 [XV-34] | > 6.30 |
| C[C@H]1CN(C(=O)Nc2ccc(CN3CCN(CCO)CC3)c(C(F)(F)F)c2)Cc2cc(Oc3ccnc4[nH]c(C#N)cc34)ccc21 [XV-36] | > 6.30 |
| CCC1CN(C(=O)Nc2ccc(CN3CCN(CC)CC3)c(C(F)(F)F)c2)Cc2cc(Oc3ccnc4[nH]c(C5CCN(C(=O)C6CC6)CC5)cc34)ccc21 (centres unmarked) [XV-40] | > 6.30 |
| CC[C@H]1CN(C(=O)Nc2ccc(CN3CCN(CCO)CC3)c(C(F)F)c2)Cc2cc(Oc3ccnc4[nH]c(C(N)=O)cc34)ccc21 [XV-41] | > 6.30 |
| CC[C@@H]1CN(C(=O)Nc2ccc(CN3CCN(CCO)CC3)c(C(F)F)c2)Cc2cc(Oc3ncnc4[nH]c(C5CC5)cc34)ccc21 [XV-42] | > 6.30 |
| C[C@@H]1Cc2ccc(Oc3ccnc4[nH]c(C(=O)N(C)C)cc34)cc2CN1C(=O)Nc1ccc(CN2CCN(C)CC2)c(C(F)(F)F)c1 [XVI-1] | > 6.30 |

Results, then the compound that gave them:

| pIC50 | SMILES |
| --- | --- |
| > 6.30 | CC[C@H]1CN(C(=O)Nc2ccc(CN3CCN(C)CC3)c(C(F)(F)F)c2)Cc2cc(Oc3c(F)cnc4[nH]c(C(=O)N(C)C)cc34)cnc21 [XIV-143] |
| > 6.30 | CC[C@H]1CN(C(=O)Nc2ccc(CN3CCNCC3)c(C(F)(F)F)c2)Cc2cc(Oc3ncnn4cc(C(=O)N(C)C)cc34)cnc21 [XIV-146] |
| > 6.30 | CC[C@H]1CN(C(=O)Nc2ccc(CN3CCN(C)CC3)c(C(F)(F)F)c2)Cc2cc(Oc3ccnc4[nH]c(-c5cc[nH]n5)cc34)cnc21 [XIV-148] |
| > 6.30 | CC[C@H]1CN(C(=O)Nc2ccc(CN3CCN(C)CC3)c(C(F)(F)F)c2)Cc2cc(Oc3ccnc4[nH]c(-c5cn[nH]c5)cc34)cnc21 [XIV-149] |
| > 6.30 | CC[C@@H]1CN(C(=O)Nc2ccc(CN3CCN(CCO)CC3)c(C(F)(F)F)c2)Cc2cc(Oc3ccnc4[nH]c(CO)cc34)ccc21 [XV-6] |
| > 6.30 | CC[C@@H]1CN(C(=O)Nc2ccc(CN3CCN(CCO)CC3)c(C(F)F)c2)Cc2cc(Oc3ccnc4[nH]c(CO)cc34)ccc21 [XV-7] |
| > 6.30 | CC[C@@H]1CN(C(=O)Nc2ccc(CN3CCN(C)CC3)c(C(F)F)c2)Cc2cc(Oc3ccnc4[nH]c(C5(O)COC5)cc34)ccc21 [XV-14] |
| > 6.30 | CC[C@@H]1CN(C(=O)Nc2ccc(CN3CCNCC3)c(C(F)(F)F)c2)Cc2cc(Oc3ccnc4[nH]c(C#N)cc34)ccc21 [XV-16] |
| > 6.30 | CC[C@H]1CN(C(=O)Nc2ccc(CN3CCNCC3)c(C(F)(F)F)c2)Cc2cc(Oc3ccnc4[nH]c(C#N)cc34)ccc21 [XV-17] |
| > 6.30 | CC[C@@H]1CN(C(=O)Nc2ccc(CN3CCN(CCO)CC3)c(C(F)F)c2)Cc2cc(Oc3ccnc4[nH]c(C#N)cc34)ccc21 [XV-20] |
| > 6.30 | CC[C@H]1CN(C(=O)Nc2ccc(CN3CCN(CCO)CC3)c(C(F)(F)F)c2)Cc2cc(Oc3ccnc4[nH]c(CO)cc34)ccc21 [XV-22] |
| > 6.30 | CC[C@@H]1CN(C(=O)Nc2ccc(CN3CCN(CCO)CC3)c(C(F)(F)F)c2)Cc2cc(Oc3ccnc4[nH]c(C5CC5)cc34)ccc21 [XV-26] |
| > 6.30 | C[C@H]1CN(C(=O)Nc2ccc(CN3CCN(C)CC3)c(C(F)(F)F)c2)Cc2cc(Oc3ccnc4[nH]c(C(N)=O)cc34)ccc21 [XV-31] |
| > 6.30 | C[C@H]1CN(C(=O)Nc2ccc(CN3CCN(C)CC3)c(C(F)(F)F)c2)Cc2cc(Oc3c(F)cnc4[nH]c(CO)cc34)ccc21 [XV-38] |
| > 6.30 | C[C@H]1CN(C(=O)Nc2ccc(CN3CCN(C)CC3)c(C(F)(F)F)c2)Cc2cc(Oc3c(F)cnc4[nH]c(C(=O)N(C)C)cc34)ccc21 [XV-39] |
